From the CheMixHub ionic liquid set

Assay: xn = mol fraction of the nth substance listed

OC1OC[C@@H](O)[C@H](O)[C@H]1O (stereo not given in full) + CCCCCCCCCCCCCCCC[N+](C)(C)C.[Br-] + O
viscosity [mPa·s], 100 kPa
Details | 298.15 K | 308.15 K | 318.15 K
x2 = 7.19e-06, x1 = 0.001926 | 0.934 | 0.772 | 0.642
x2 = 7.19e-06, x1 = 0.002323 | 0.941 | 0.779 | 0.647
x2 = 7.19e-06, x1 = 0.002648 | 0.948 | 0.784 | 0.651
x2 = 7.2e-06, x1 = 0.0009003 | 0.914 | 0.756 | 0.629
x2 = 7.2e-06, x1 = 0.001314 | 0.922 | 0.763 | 0.634
x2 = 7.2e-06, x1 = 0.001634 | 0.928 | 0.768 | 0.638
x2 = 1.438e-05, x1 = 0.002366 | 0.948 | 0.784 | 0.651
x2 = 1.438e-05, x1 = 0.002756 | 0.957 | 0.791 | 0.656
x2 = 1.439e-05, x1 = 0.001528 | 0.931 | 0.77 | 0.639
x2 = 1.439e-05, x1 = 0.001964 | 0.94 | 0.777 | 0.645
x2 = 1.44e-05, x1 = 0.0009094 | 0.918 | 0.759 | 0.63
x2 = 1.44e-05, x1 = 0.001186 | 0.923 | 0.764 | 0.634
x2 = 2.157e-05, x1 = 0.002446 | 0.955 | 0.79 | 0.654
x2 = 2.157e-05, x1 = 0.002688 | 0.961 | 0.795 | 0.658
x2 = 2.158e-05, x1 = 0.00199 | 0.945 | 0.782 | 0.647
x2 = 2.159e-05, x1 = 0.001338 | 0.93 | 0.77 | 0.637
x2 = 2.159e-05, x1 = 0.001717 | 0.939 | 0.777 | 0.643
x2 = 2.16e-05, x1 = 0.0009887 | 0.923 | 0.763 | 0.632

CCCCCC[n+]1ccn(C)c1.O=[N+]([O-])c1cn[n-]c1 + CCCCCCCCCCCCCC[P+](CCCCCC)(CCCCCC)CCCCCC.O=S(=O)([N-]S(=O)(=O)C(F)(F)F)C(F)(F)F
Details | viscosity [mPa·s]
283.15 K, 100 kPa, x2 = 0.899 | 820

CSCC[C@H](N)C(=O)O + CCCCCCCCCCCC[N+](C)(C)C.[Br-] + O
viscosity [mPa·s], 101 kPa
Details | 293.15 K | 298.15 K | 303.15 K | 308.15 K | 313.15 K
x1 = 0.0001801, x2 = 0.0001083 | 1.019 | 0.904 | 0.811 | 0.746 | 0.677
x1 = 0.0001801, x2 = 0.0001624 | 1.024 | 0.907 | 0.814 | 0.749 | 0.68
x1 = 0.0001801, x2 = 0.0002165 | 1.03 | 0.909 | 0.816 | 0.75 | 0.681
x1 = 0.0001801, x2 = 0.0002706 | 1.034 | 0.912 | 0.818 | 0.752 | 0.683
x1 = 0.0001801, x2 = 0.0003247 | 1.04 | 0.915 | 0.82 | 0.754 | 0.685
x1 = 0.0001801, x2 = 0.0003788 | 1.044 | 0.919 | 0.823 | 0.756 | 0.687
x1 = 0.0001801, x2 = 0.0004329 | 1.046 | 0.922 | 0.829 | 0.758 | 0.689
x1 = 0.0001801, x2 = 0.0004869 | 1.049 | 0.927 | 0.834 | 0.76 | 0.691
x1 = 0.0001801, x2 = 0.000541 | 1.052 | 0.931 | 0.84 | 0.762 | 0.694
x1 = 0.0001802, x2 = 5.413e-05 | 1.013 | 0.9 | 0.81 | 0.745 | 0.672
x1 = 0.0008997, x2 = 0.0005439 | 1.07 | 0.912 | 0.836 | 0.761 | 0.683
x1 = 0.0008998, x2 = 0.0003808 | 1.061 | 0.906 | 0.819 | 0.751 | 0.672
x1 = 0.0008998, x2 = 0.0004351 | 1.063 | 0.908 | 0.822 | 0.753 | 0.675
x1 = 0.0008998, x2 = 0.0004895 | 1.066 | 0.91 | 0.831 | 0.756 | 0.679
x1 = 0.0008999, x2 = 0.000272 | 1.057 | 0.902 | 0.812 | 0.746 | 0.668
x1 = 0.0008999, x2 = 0.0003264 | 1.059 | 0.904 | 0.815 | 0.748 | 0.67
x1 = 0.0009, x2 = 0.0001632 | 1.053 | 0.899 | 0.809 | 0.74 | 0.663
x1 = 0.0009, x2 = 0.0002176 | 1.054 | 0.901 | 0.81 | 0.743 | 0.666
x1 = 0.0009001, x2 = 5.441e-05 | 1.048 | 0.894 | 0.805 | 0.732 | 0.658
x1 = 0.0009001, x2 = 0.0001088 | 1.051 | 0.896 | 0.807 | 0.735 | 0.66
x1 = 0.001798, x2 = 0.0001643 | 1.062 | 0.911 | 0.822 | 0.745 | 0.675
x1 = 0.001798, x2 = 0.000219 | 1.064 | 0.913 | 0.824 | 0.747 | 0.676
x1 = 0.001798, x2 = 0.0002738 | 1.066 | 0.916 | 0.827 | 0.749 | 0.678
x1 = 0.001798, x2 = 0.0003285 | 1.069 | 0.919 | 0.83 | 0.751 | 0.681
x1 = 0.001798, x2 = 0.0003832 | 1.073 | 0.921 | 0.832 | 0.756 | 0.683
x1 = 0.001798, x2 = 0.0004379 | 1.076 | 0.927 | 0.836 | 0.76 | 0.686
x1 = 0.001798, x2 = 0.0004927 | 1.079 | 0.932 | 0.84 | 0.764 | 0.692
x1 = 0.001798, x2 = 0.0005474 | 1.083 | 0.937 | 0.844 | 0.77 | 0.698
x1 = 0.001799, x2 = 5.476e-05 | 1.059 | 0.906 | 0.818 | 0.741 | 0.671
x1 = 0.001799, x2 = 0.0001095 | 1.06 | 0.909 | 0.82 | 0.743 | 0.673
